{"source": "patent US20240091203A1", "about": "“METHODS FOR TREATING NON-OBSTRUCTIVE HYPERTROPHIC CARDIOMYOPATHY” (Cytokinetics, Incorporated, priority 2022, published 2024)", "system": "healthy adults", "assay": "Phase 1 pharmacodynamics by echocardiography (LVEF and other parameters, PK/PD)", "type": "in vivo, human", "method": "Echocardiography. For PD assessments of LVEF, echocardiograms for the SAD and MAD cohorts were interpreted by the echocardiography core laboratory and used for all data analysis and dose level review decisions while immediate local interpretation of the echocardiograms was performed for safety monitoring. […] Echocardiograms on day 3 (48 h after dosing) were obtained only if the 24 h LVEF had not returned to near or above baseline, as determined by the investigator. In the MAD cohorts, echocardiograms were obtained on day −1, pre-dose on day 1, and at 1.5 h post dose on days 2, 4, and 9, and at 1.5, 24, and 72 h post dose on day 14 (for the 5-mg and 10-mg cohorts) or on day 17 (for the 7.5-mg cohort). Echocardiograms were obtained 3 days after the last dose (on day 17 or 20) only if the participant's prior LVEF was not near or above baseline, as determined by the investigator.\nAll participants who received ≥1 dose of study drug and had ≥1 pre-dose and ≥1 post-dose echocardiographic measurement were included in the PD analysis set. […] Descriptive statistics of the echocardiographic parameters were generated using SAS® Version 9.3 or higher.\nDose-response analysis was performed using analysis of covariance (ANCOVA) to identify the least-squares mean difference (aficamten minus placebo). To analyze the impact of drug dose on echocardiographic parameters in the SAD and MAD cohorts, an inferential analysis was conducted on the PD analysis set using linear mixed models for repeated-measures analysis of covariance (ANCOVA). The ANCOVA used baseline value as a covariate, included treatment, time-point, and time-point-by-treatment interaction as fixed effects, and change from baseline as the dependent variable. The unstructured variance-covariance structure was used, and the model accounted for the time-point repeated measures. The ANCOVA analysis was conducted separately for each study part and for each PD parameter. The least-squares means, the difference in least squares means (active minus placebo), and the associated 2-sided 95% CIs were presented for each comparison.\nAnalyses of concentration ‘bin’ and exposure-response were also performed using ANCOVA. SAS® PROC MIXED was used for all comparative analyses. […] A concentration bin ANCOVA was conducted using linear mixed models for repeated-measures analyses with concentration bin group as a fixed effect, baseline PD parameters as a covariate, change from baseline as the dependent variable, and a random intercept to adjust for the repeated measures. The unstructured variance-covariance structure was used. […] The ANCOVA compared the change in PD parameters between each bin versus the pooled placebo group.\nThe least-squares means, the difference in least squares means (bin group minus placebo), and the associated 2-sided 95% CIs were presented for each comparison. The ANCOVA analysis was conducted separately for each study part. For all time-points at which both PK data and PD measures were available, the time-points were pooled for the analysis. […] From least to greatest, the data were then divided into 5 groups of observations (‘bins’), each consisting of 20% of the data points. Each bin was treated as a separate group.\nThe above analysis was then repeated using concentration as a continuous variable to estimate the exposure-response trend. Both a random intercept effect and a random concentration effect were added to the ANCOVA. The estimate of the concentration slope, with corresponding 2-sided 95% CIs, and the ANCOVA analyses were presented for each study part.\nFor all time-points at which both PK data and PD measures were available, the time points were pooled for the analysis. A nominal significance level of 5% was used for statistical comparisons, without adjustment for multiplicity.", "key": {"[1]": {"details": "SAD 50 mg (n = 11), change from baseline at […], mean"}}, "note": "Several values for one entry are separate records, joined by “and”; a condition that tells them apart may be missing. Equal values may be shown once. Entries after “also recorded” stand apart in the source; their conditions may differ.", "data": [{"molecule": "CCc1nc(-c2ccc3c(c2)CC[C@H]3NC(=O)c2cnn(C)c2)no1", "note": "[aficamten, (R)—N-(5-(5-ethyl-1,2,4-oxadiazol-3-yl)-2,3-dihydro-1H-inden-1-yl)-1-methyl-1H-pyrazole-4-carboxamide]", "values": [{"measurement": "relationship of LVEF to plasma concentration of aficamten", "setting": "MAD cohorts, bin concentration or linear regression analysis", "value": "did not reach statistical significance"}, {"measurement": "suppression of LVEF versus plasma concentration", "setting": "MAD cohorts, plasma aficamten concentrations of ≤180 ng/ml", "value": "minimal suppression of LVEF"}, {"measurement": "participants with decreases in LVEF to <50%", "setting": "Phase 1, rapidly reversible upon study drug discontinuation", "value": "Three participants"}, {"measurement": "E (peak E wave velocity)", "setting": "SAD 50 mg (n = 11), […], mean", "value": 64, "unit": "cm/s"}, {"measurement": "A (peak A wave velocity), CFB", "setting": "[1]", "value": 2.5, "unit": "cm/s"}, {"measurement": "E (peak E wave velocity), CFB", "setting": "[1]", "value": -2.7, "unit": "cm/s"}, {"measurement": "Heart rate, CFB", "setting": "[1]", "value": 0.5, "unit": "bpm"}, {"measurement": "IVCT, CFB", "setting": "[1]", "value": 0.4, "unit": "ms"}, {"measurement": "IVRT, CFB", "setting": "[1]", "value": 0.5, "unit": "ms"}, {"measurement": "LAV, CFB", "setting": "[1]", "value": 0, "unit": "mL"}, {"measurement": "LV EDV, CFB", "setting": "[1]", "value": 6.6, "unit": "mL"}, {"measurement": "LV ESV, CFB", "setting": "[1]", "value": 8.1, "unit": "mL"}, {"measurement": "LV ET, CFB", "setting": "[1]", "value": 1.9, "unit": "ms"}, {"measurement": "LV SV, CFB", "setting": "[1]", "value": -6.2, "unit": "mL"}, {"measurement": "LVEF, CFB", "setting": "[1]", "value": "−5.8", "unit": "%"}, {"measurement": "e′ lateral, CFB", "setting": "[1]", "value": -1.3, "unit": "cm/s"}, {"measurement": "time after dosing at which LVEF <50% was noted", "setting": "SAD 50 mg and 75 mg, 3 participants", "value": "approximately 1.5 h"}, {"measurement": "participants with absolute reduction in LVEF of ≥5% from baseline", "setting": "SAD 1-mg cohort", "value": "no participants"}, {"measurement": "participants with absolute reduction in LVEF of ≥5% from baseline", "setting": "SAD 10-mg cohort", "value": "no participants"}, {"measurement": "participants with absolute reduction in LVEF of ≥5% from baseline", "setting": "SAD 25-mg cohort", "value": "no participants"}, {"measurement": "participants with reduction in LVEF to <50%", "setting": "SAD 50-mg cohort, 2 of 11, core laboratory", "value": 18, "unit": "%"}, {"measurement": "reduction in LVEF from baseline, least-squares mean difference", "setting": "SAD 50-mg cohort, […] post dose, p=0.0001", "value": 5.5, "unit": "%"}, {"measurement": "LVEF of the 2 participants with LVEF <50%", "setting": "SAD 50-mg cohort, per core laboratory assessment", "value": "48.2% and 45.5%"}, {"measurement": "participants with reduction in LVEF to <50%", "setting": "SAD 75-mg cohort, 1 of 1", "value": 100, "unit": "%"}, {"measurement": "participants with LVEF <45%", "setting": "SAD cohorts, core laboratory", "value": "Only the participant in the 75-mg cohort"}, {"measurement": "relationship of LVEF to plasma concentration of aficamten", "setting": "SAD cohorts, highest bin 122 to 524 ng/ml p<0.0001, concentration-slope p=0.0027", "value": "statistically significant decrease in LVEF; also recorded: trend toward a decrease in LVEF"}, {"measurement": "reduction in LVEF to <50%", "setting": "any of the MAD cohorts, core laboratory", "value": "not observed"}, {"measurement": "time for reversal of decreases in LVEF to values <50%", "setting": "following single doses", "value": "≤ 6", "unit": "h"}, {"measurement": "time for LVEF to return to baseline", "setting": "participants whose LVEF fell below 50%", "value": "≤ 24", "unit": "h"}, {"measurement": "LVEF after reduction", "setting": "single dose of 75 mg, 1 participant", "value": 34.1, "unit": "%"}, {"measurement": "reduction in LVEF", "setting": "single participant, SAD 75 mg, […] post dose", "value": 31.5, "unit": "%"}]}]}
